Values joined by “and” are separate entries in the source; they are usually repeats but may differ in a detail not shown here. Equal entries are not always repeated. “Also recorded” adds a separate entry of the source.
Assays:
[1] = tested on: IL15 stimulated IFNγ protein; test: MAD ex vivo PD: IL15 stimulated IFNγ protein; assay type: in vivo; conditions: Homo sapiens
Description: (§1) Exploratory Endpoints—Mean change from baseline in cellular, extracellular (secreted), and/or message markers of inflammation.
(§2) EC50 and IC50 data for αCD3 & αCD28 stimulated IL2mRNA, IL15 stimulated IFNγ protein, and αCD3 & IL15 stimulated IFNγ protein is shown in table 9.

[2] = tested on: colitis (mouse T cell transfer model); test: Mouse T cell transfer model of inflammatory bowel disease; assay type: in vivo
Description: The study evaluated Compound I dose dependent ability to inhibit inflammation in the mouse T cell transfer model of inflammatory bowel disease.

ITK (IL2 mRNA) [3] = test: Pre-clinical human whole blood αCD3/28/IL-2 mRNA (2 hr); assay type: cell-based
[4] = Phase 1 SAD study: safety and tolerability; assay type: in vivo, human
Experimental: Primary Endpoints—Number and percentage of adverse events (AEs) and serious adverse events (SAEs); mean change from baseline in laboratory values, vital signs, and electrocardiograms (ECGs) abnormalities.
Type of Study—This was an FIH, randomized, observer-blind, placebo-controlled study designed to evaluate the safety, tolerability, PK, and PD of Compound I in healthy subjects. The study consisted of: single ascending dose (SAD) cohorts (1-80 mg/day) plus formulation bridging and food effect (FE) cohorts.
Approximately 64 male and female subjects were enrolled into 8 planned cohorts in the SAD study. In each cohort, a total of 8 subjects were randomized to receive a single oral capsule dose of Compound I (n=6) or placebo (n=2) in the morning with approximately 240 mL of water after an overnight fast of at least 8 hours.

JAK3 (pSTAT5, CD3+ T) [5] = test: SAD ex vivo PD: IL2 stimulated pSTAT5 in CD3+ T cells; conditions: Homo sapiens, T-cell; SAD study; read-out: Clinical EC50
Description: (§3) Secondary Endpoints—Compound I plasma concentrations. Mean change from baseline in ex vivo stimulated pSTAT5 and pSTAT1 (signal transducer and activator of transcription); and in ex vivo stimulated IFNγ mRNA (interferon gamma messenger ribonucleic acid).
(§4) Summary of SAD data: FIGS. 4-8 and 9-13 show the SAD dose response, SAD exposure response, and SAD calculated response at Cmax by dose respectively for ITK (IL2 mRNA), ITK (IFNγ mRNA), JAK3 (pSTAT5, lymph), JAK3 (pSTAT5, CD3′ T), and ITK & JAK (IFNγ protein). Clinical and pre-clinical IC50 data for ITK (IL2 mRNA), ITK (IFNγ mRNA), JAK3 (pSTAT5, lymph), JAK3 (pSTAT5, CD3^+ T), and ITK & JAK (IFNγ protein) from the SAD study is shown in table 4.

JAK2 = biological target: T1, JAK2 (Homo sapiens, UniProt O60674); test: Cell IC50 JAK2; assay type: cell-based
T1 construct: endogenous in cells
T1 sequence (O60674 whole entry): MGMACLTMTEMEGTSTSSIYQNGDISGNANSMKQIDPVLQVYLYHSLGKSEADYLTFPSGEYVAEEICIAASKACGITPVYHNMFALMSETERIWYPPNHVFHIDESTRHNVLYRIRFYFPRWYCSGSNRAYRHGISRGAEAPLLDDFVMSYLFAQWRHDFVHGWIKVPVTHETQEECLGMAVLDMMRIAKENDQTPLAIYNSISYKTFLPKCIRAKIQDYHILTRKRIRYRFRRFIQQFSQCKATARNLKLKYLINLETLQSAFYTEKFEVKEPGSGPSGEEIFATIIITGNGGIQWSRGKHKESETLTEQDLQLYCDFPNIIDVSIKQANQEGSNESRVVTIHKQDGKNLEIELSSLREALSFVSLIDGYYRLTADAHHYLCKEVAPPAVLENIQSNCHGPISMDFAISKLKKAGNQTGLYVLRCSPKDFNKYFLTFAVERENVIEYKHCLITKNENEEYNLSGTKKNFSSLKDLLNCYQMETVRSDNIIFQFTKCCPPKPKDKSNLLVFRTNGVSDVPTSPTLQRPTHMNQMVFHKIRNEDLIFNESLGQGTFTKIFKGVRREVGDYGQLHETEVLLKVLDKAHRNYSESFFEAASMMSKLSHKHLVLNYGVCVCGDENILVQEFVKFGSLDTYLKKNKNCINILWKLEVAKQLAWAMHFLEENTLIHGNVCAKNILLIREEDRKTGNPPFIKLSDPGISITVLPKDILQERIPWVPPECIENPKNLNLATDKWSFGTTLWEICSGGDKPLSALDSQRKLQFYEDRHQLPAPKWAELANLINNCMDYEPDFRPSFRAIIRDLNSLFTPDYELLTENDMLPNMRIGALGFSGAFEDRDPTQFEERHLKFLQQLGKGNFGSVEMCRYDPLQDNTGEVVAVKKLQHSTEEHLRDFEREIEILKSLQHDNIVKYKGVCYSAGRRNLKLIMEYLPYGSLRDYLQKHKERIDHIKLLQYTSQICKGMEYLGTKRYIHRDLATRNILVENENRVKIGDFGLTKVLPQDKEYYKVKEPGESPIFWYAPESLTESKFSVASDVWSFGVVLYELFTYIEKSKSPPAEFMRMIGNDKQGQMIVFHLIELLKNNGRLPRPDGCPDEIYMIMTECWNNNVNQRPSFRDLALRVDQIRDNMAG

ITK = biological target: T2, ITK (Homo sapiens, UniProt Q08881); test: Cell IC50 ITK (Jurkat/pPLCγ1); assay type: cell-based
T2 construct: (Jurkat/pPLCγ1); endogenous in cells; host or cells: Jurkat
T2 sequence (Q08881 1-620): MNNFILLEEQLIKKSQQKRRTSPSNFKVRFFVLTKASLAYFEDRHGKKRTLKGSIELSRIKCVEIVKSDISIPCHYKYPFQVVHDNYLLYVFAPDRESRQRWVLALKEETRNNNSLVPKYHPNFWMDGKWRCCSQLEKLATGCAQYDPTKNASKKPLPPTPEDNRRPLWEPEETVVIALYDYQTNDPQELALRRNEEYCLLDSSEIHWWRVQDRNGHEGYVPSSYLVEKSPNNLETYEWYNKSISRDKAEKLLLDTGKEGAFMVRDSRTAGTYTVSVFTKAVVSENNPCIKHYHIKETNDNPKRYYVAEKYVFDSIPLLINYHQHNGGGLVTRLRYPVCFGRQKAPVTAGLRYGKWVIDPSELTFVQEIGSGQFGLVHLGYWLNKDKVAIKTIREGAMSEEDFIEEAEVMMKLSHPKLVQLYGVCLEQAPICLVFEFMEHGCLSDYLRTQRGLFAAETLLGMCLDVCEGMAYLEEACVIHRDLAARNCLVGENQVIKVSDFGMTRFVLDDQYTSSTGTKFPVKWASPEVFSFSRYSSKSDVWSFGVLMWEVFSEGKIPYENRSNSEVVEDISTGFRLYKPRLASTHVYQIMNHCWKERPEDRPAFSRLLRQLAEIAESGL

ITK and JAK3 = test: MAD exploratory PD, all biomarker readouts; assay type: in vivo, human
Experimental: as §1
Results: 57 subjects completed the MAD study. […] Peak concentrations were reached within 2 hours after dosing.

ITK (IL2 mRNA) [6] = test: SAD ex vivo PD: αCD3/αCD28 stimulated IL2 mRNA production; assay type: in vivo; conditions: Homo sapiens
Description: as §3, §4

[7] = tested on: αCD3 & αCD28 stimulated IL2mRNA; test: MAD ex vivo PD: αCD3 & αCD28 stimulated IL2 mRNA; assay type: in vivo; conditions: Homo sapiens
Description: as §1, §2

[8] = 13 week toxicology and toxicokinetic study in rats; assay type: in vivo, rat
Description: Purpose: Evaluation of toxicity and toxicokinetic (TK) for Compound I, following daily dosing for 13 weeks.

[9] = tested on: ankle diameter swelling (Antigen Induced Arthritis); test: Rat Antigen Induced Arthritis (AIA) model, ankle diameter swelling; assay type: in vivo; conditions: PO from day 6
Description: The study evaluated the rat AIA kinetics of ankle diameter swelling. Therapeutic model with PO dosing beginning on day 6.

JAK3 (pSTAT5, CD3+ T) [10] = test: Pre-clinical IL2 stimulated pSTAT5 in CD3+ T cells; assay type: cell-based; conditions: Homo sapiens, T-cell
experimental colitis = test: Mouse colitis model vs ritlecitinib and tofacitinib, histological damage; assay type: in vivo; conditions: proximal/distal colon and ileum
Experimental: […] experimental colitis data-Histological damage was evaluated for the proximal/distal colon and ileum. Representative data shown here is from the distal colon-across all three regions of GI tissues analyzed.

C=CC(=O)N1C[C@H](Nc2ncnc3[nH]cc([C@H]4CC4(F)F)c23)CC[C@@H]1C [Compound I, 1-((2S,5R)-5-((5-((R)-2,2-difluorocyclopropyl)-7H-pyrrolo[2,3-d]pyrimidin-4-yl)amino)-2-methylpiperidin-1-yl)prop-2-en-1-one]
EC50 [1]: 0.0022 µg/mL and 6.1 nM | Colitis [2]: inhibited colitis | Effect compared with anti-IL12 (P40) [2]: The effect was greater than anti-IL12 (P40) | Inflammation in proximal and distal colon, and ileum [2]: dose dependently decreased inflammation | Potency relative to Ritlecitinib, αCD3/28/IL-2 mRNA (2 hr) (ITK (IL2 mRNA) [3]): (35 fold*) | IC50 (ITK (IL2 mRNA) [3]; Homo sapiens): 0.0077 µg/mL and 21.3 nM | EC50 (ITK (IL2 mRNA) [3]; Homo sapiens, 2 h, read-out: Human Whole Blood EC50, αCD3/28/IL-2 mRNA (2 hr)): 21 nM | EC50 (ITK (IL2 mRNA) [3]; Homo sapiens, read-out: Pre-clinical EC50): 21.3 ± 4.3 nM | Deaths, serious AEs, discontinuations due to AEs ([4]; SAD): no deaths, serious AEs, or discontinuations due to AEs | Safety and tolerability conclusion ([4]; SAD): safe and well tolerated | Severity of TEAEs ([4]; SAD): mild and transient | Transient increase in CK at follow-up ([4]; SAD highest dose group (80 mg)): 2 subjects | Transient increase in transaminases at follow-up ([4]; SAD highest dose group (80 mg)): 1 subject | Number of TEAEs in Compound I treated subjects ([4]; SAD, 13 subjects): 14 | Changes in WBC count ([4]; SAD, during treatment and at follow-up): No clinically meaningful changes | EC50 (JAK3 (pSTAT5, CD3+ T) [5]): 110 nM | Cell IC50, JAK2 (JAK2): Inactive | Potency on ITK relative to ritlecitinib (ITK): ~ 100 × | Potency relative to Ritlecitinib, ITK (Jurkat/pPLCγ1) (ITK): 81 fold | T cell receptor blockade, Compound I vs CsA (ITK): equipotent | IC50 (ITK; Jurkat, pPLCγ1): 8 nM | Selectivity for ITK (over JAK3) (ITK; cell IC50 ITK vs JAK3): 3 fold | Inhibition of biomarker readouts, comparison of regimens (ITK and JAK3; 10 mg TID, 15 mg BID, 30 mg BID doses): inhibited biomarker readouts to a similar extent | Change of MAD Day 1 EC50 vs Days 7 & 15 EC50 (ITK and JAK3; MAD): No significant change | Modulation of all PD biomarker readouts (ITK and JAK3; MAD): dose- and time-dependent modulation; also recorded: dose and time dependent modulation | Inhibition of biomarker readouts (ITK and JAK3; MAD, 15-40 mg BID, across the dosing intervals): 50-90% | Inhibition of biomarker readouts (ITK and JAK3; MAD, 2 hours post treatment, doses of 15 mg to 80 mg): Near-complete inhibition | EC50 (ITK (IL2 mRNA) [6]; SAD study, read-out: Clinical EC50): 15.2 nM | EC50 (ITK (IL2 mRNA) [6]; read-out: SAD EC50): 0.0055 µg/mL and 15.2 nM | EC50 [7]: 0.0019 µg/mL and 5.3 nM | Nephrotoxicity ([8]; Compound I toxicity studies): no evidence of nephrotoxicity | Cmax ([8]; in vivo, 80 mg/kg, rat, NOAEL 80 mpk): 13800 ng/mL | AUC(0-t) ([8]; in vivo, 80 mg/kg, rat, NOAEL 80 mpk, read-out: AUC0-24 h at NOAEL): 45000 ng·h/mL | Adverse effects ([8]; rat, 5, 20, 80 mpk, 13 weeks): No adverse effects observed | No observed adverse effect level ([8]; rat, daily dosing 13 weeks): 80 mpk | Ankle diameter swelling, comparison of regimens ([9]; rat AIA, 5 mpk BID, 15 BID and 30 QD): No significant difference | BID vs QD dosing efficacy ([9]; rat arthritis model): BID dosing is more effective than QD dosing | EC50 (JAK3 (pSTAT5, CD3+ T) [10]): 140 ± 49.3 nM | Protection from histological damage vs comparator drugs (experimental colitis): more protective than both comparator drugs

Reference: patent publication US20260191863A1, “PYRROLOPYRIMIDINE COMPOSITIONS FOR TREATMENT OF ITK MEDIATED CONDITIONS” (ACLARIS THERAPEUTICS, INC., priority 2022, published 2026)
